Molecules are shown by their SMILES. Activity calls are given as the source filed them. How the calls were made is not given here.

For this series, the system named is CCRIS mutagenicity, Ames/micronucleus/aberration tests. Kind of series: CCRIS mutagenicity studies.
Where [1] appears, read: Test System: AMES SALMONELLA TYPHIMURIUM, Strain/Indicator: TA98, Metabolic Activation: NONE, Method: PREINCUBATION
The mark [2] stands for this setting: Test System: AMES SALMONELLA TYPHIMURIUM, Strain/Indicator: TA100, Metabolic Activation: NONE, Method: PREINCUBATION
Setting [3] is: Test System: AMES SALMONELLA TYPHIMURIUM, Strain/Indicator: TA1535, Metabolic Activation: NONE, Method: PREINCUBATION
[4] abbreviates: Test System: AMES SALMONELLA TYPHIMURIUM, Strain/Indicator: TA100, Metabolic Activation: NONE, Method: STANDARD PLATE.

With `CCOC(C)(C)C`, the mutagenic call is “inactive; negative” (Test System: AMES SALMONELLA TYPHIMURIUM, Strain/Indicator: TA97, Metabolic Activation: HAMSTER, LIVER, S-9, AROCLOR 1254 (10 OR 30%), Method: PREINCUBATION); “inactive; negative” (Test System: AMES SALMONELLA TYPHIMURIUM, Strain/Indicator: TA97, Metabolic Activation: NONE, Method: PREINCUBATION); “inactive; negative” (Test System: AMES SALMONELLA TYPHIMURIUM, Strain/Indicator: TA97, Metabolic Activation: RAT, LIVER, S-9, AROCLOR 1254 (10 OR 30%), Method: PREINCUBATION); “inactive; negative” (Test System: AMES SALMONELLA TYPHIMURIUM, Strain/Indicator: TA98, Metabolic Activation: HAMSTER, LIVER, S-9, AROCLOR 1254 (10 OR 30%), Method: PREINCUBATION); “inactive; negative” under setting [1]; “inactive; negative” (Test System: AMES SALMONELLA TYPHIMURIUM, Strain/Indicator: TA98, Metabolic Activation: RAT, LIVER, S-9, AROCLOR 1254 (10 OR 30%), Method: PREINCUBATION). For the same molecule, the mutagenic call by setting is: (Test System: AMES SALMONELLA TYPHIMURIUM, Strain/Indicator: TA100, Metabolic Activation: HAMSTER, LIVER, S-9, AROCLOR 1254 (10 OR 30%), Method: PREINCUBATION) “inactive; negative”; under setting [2], “inactive; negative”; (Test System: AMES SALMONELLA TYPHIMURIUM, Strain/Indicator: TA100, Metabolic Activation: RAT, LIVER, S-9, AROCLOR 1254 (10 OR 30%), Method: PREINCUBATION) “inactive; negative”; (Test System: AMES SALMONELLA TYPHIMURIUM, Strain/Indicator: TA1535, Metabolic Activation: HAMSTER, LIVER, S-9, AROCLOR 1254 (10 OR 30%), Method: PREINCUBATION) “inactive; negative”; under setting [3], “inactive; negative”; (Test System: AMES SALMONELLA TYPHIMURIUM, Strain/Indicator: TA1535, Metabolic Activation: RAT, LIVER, S-9, AROCLOR 1254 (10 OR 30%), Method: PREINCUBATION) “inactive; negative”.
As for `CC(Br)CBr` (stereo unspecified), the mutagenic call runs as follows: (Test System: AMES SALMONELLA TYPHIMURIUM, Strain/Indicator: TA97, Metabolic Activation: NONE, Method: STANDARD PLATE) “inactive; negative”; (Test System: AMES SALMONELLA TYPHIMURIUM, Strain/Indicator: TA97, Metabolic Activation: RAT, LIVER, S-9, PCB, Method: STANDARD PLATE) “inactive; negative”; under setting [1], “inactive; negative”; (Test System: AMES SALMONELLA TYPHIMURIUM, Strain/Indicator: TA98, Metabolic Activation: RAT LIVER S-9, PHENOBARBITAL AND BETA-NAPHTHOFLAVONE, Method: PREINCUBATION) “inactive; negative”; under setting [2], “inactive; negative”; under setting [4], “inactive; negative”. Further, the mutagenic call reads like this: (Test System: AMES SALMONELLA TYPHIMURIUM, Strain/Indicator: TA100, Metabolic Activation: RAT LIVER S-9, PHENOBARBITAL AND BETA-NAPHTHOFLAVONE, Method: PREINCUBATION) “inactive; negative”; (Test System: AMES SALMONELLA TYPHIMURIUM, Strain/Indicator: TA100, Metabolic Activation: RAT, LIVER, MICROSOMES, PHENOBARBITAL, NADPH COFACTORS, Method: STANDARD PLATE) “active; positive”; (Test System: AMES SALMONELLA TYPHIMURIUM, Strain/Indicator: TA100, Metabolic Activation: RAT, LIVER, MICROSOMES, PHENOBARBITAL, Method: STANDARD PLATE) “active; positive”; (Test System: AMES SALMONELLA TYPHIMURIUM, Strain/Indicator: TA100, Metabolic Activation: RAT, LIVER, S-9, PCB, Method: STANDARD PLATE) “inactive; negative”; (Test System: AMES SALMONELLA TYPHIMURIUM, Strain/Indicator: TA1534, Metabolic Activation: HOST-MEDIATED, Method: IN VIVO) “inactive; negative”; under setting [3], “inactive; negative”. Besides, the mutagenic call is “inactive; negative” (Test System: AMES SALMONELLA TYPHIMURIUM, Strain/Indicator: TA1537, Metabolic Activation: NONE, Method: PREINCUBATION); “inactive; negative” (Test System: AMES SALMONELLA TYPHIMURIUM, Strain/Indicator: TA1537, Metabolic Activation: RAT LIVER S-9, PHENOBARBITAL AND BETA-NAPHTHOFLAVONE, Method: PREINCUBATION); “inactive; negative” (Test System: AMES SALMONELLA TYPHIMURIUM, Strain/Indicator: TA1950, Metabolic Activation: HOST-MEDIATED, Method: IN VIVO); “inactive; negative” (Test System: E.COLI, Strain/Indicator: WP2UVRA, Metabolic Activation: NONE, Method: PREINCUBATION); “inactive; negative” (Test System: E.COLI, Strain/Indicator: WP2UVRA, Metabolic Activation: RAT LIVER S-9, PHENOBARBITAL AND BETA-NAPHTHOFLAVONE, Method: PREINCUBATION); “active; positive” (Test System: UDS RAT HEPATOCYTES, Strain/Indicator: THY INCORP, Metabolic Activation: NONE).
In the case of `O=[N+]([O-])c1cccc(Br)c1`, the mutagenic call by setting is: under setting [1], “inactive; negative”; (Test System: AMES SALMONELLA TYPHIMURIUM, Strain/Indicator: TA98, Metabolic Activation: RAT, LIVER, S-9, KANECHLOR 500, Method: PREINCUBATION) “inactive; negative”; (Test System: AMES SALMONELLA TYPHIMURIUM, Strain/Indicator: TA100, Metabolic Activation: RAT, LIVER, S-9, KANECHLOR 500, Method: PREINCUBATION) “active; positive”.
Regarding `Nc1cc([N+](=O)[O-])ccc1CO`, the mutagenic call under setting [1] was “active; positive”; the mutagenic call (Test System: AMES SALMONELLA TYPHIMURIUM, Strain/Indicator: TA98, Metabolic Activation: RAT, LIVER, S-9, PHENOBARBITAL AND 5,6-BENZOFLAVONE, Method: PREINCUBATION) was “active; positive”; the mutagenic call under setting [2] is “active; positive”; the mutagenic call (Test System: AMES SALMONELLA TYPHIMURIUM, Strain/Indicator: TA100, Metabolic Activation: RAT, LIVER, S-9, PHENOBARBITAL AND 5,6-BENZOFLAVONE, Method: PREINCUBATION) was “active; positive”.
As to `N[C@@H](CCCCN/C=C/C=O)C(=O)O`, the mutagenic call (Test System: AMES SALMONELLA TYPHIMURIUM, Strain/Indicator: HISD3052, Metabolic Activation: NONE, Method: STANDARD PLATE) was “active; positive”.
Turning to `CON(C)C(=O)Nc1ccc(Br)cc1`, the mutagenic call was “inactive; negative” (Test System: AMES SALMONELLA TYPHIMURIUM, Strain/Indicator: TA98, Metabolic Activation: NONE, Method: STANDARD PLATE); “inactive; negative” (Test System: AMES SALMONELLA TYPHIMURIUM, Strain/Indicator: TA98, Metabolic Activation: RAT, LIVER, S-9, AROCLOR 1254, Method: STANDARD PLATE); “inactive; negative” under setting [4]; “inactive; negative” (Test System: AMES SALMONELLA TYPHIMURIUM, Strain/Indicator: TA100, Metabolic Activation: RAT, LIVER, S-9, AROCLOR 1254, Method: STANDARD PLATE).
As to `OC1CC=Cc2cccnc21` (stereo unspecified), the mutagenic call reads like this: under setting [4], “inactive; negative”; (Test System: AMES SALMONELLA TYPHIMURIUM, Strain/Indicator: TA100, Metabolic Activation: RAT, LIVER, S-9, AROCLOR 1254 (10 OR 20%), Method: STANDARD PLATE) “inactive; negative”.
On to `CC1=C(O)C(=O)C(O)CO1` (stereo unspecified), for which the mutagenic call under setting [2] is “active; positive” and the mutagenic call (Test System: AMES SALMONELLA TYPHIMURIUM, Strain/Indicator: TA100, Metabolic Activation: S-9, Method: PREINCUBATION) was “active; positive”.
